Assay results reported in patent EP0472181B1, “5-Amine substituted adenosine analogs as immunosuppressants” (MERRELL PHARMACEUTICALS INC., priority 1990, dated 1992).

How the values were obtained:
[1] = system: Cloned IL-2 dependent cytolytic T lymphocytes (CTLL-20); test: Inhibition of interleukin-2 dependent T-cell growth in vitro: DNA synthesis activity by [^3H]-TdR pulse after IL-2 restimulation; assay type: cell-based; details: [^3H]-TdR final 6 hours
Protocol: The CTLL-20 cells were restimulated with IL-2 (10 units/mL) for 24 hours and were pulsed for the final 6 hours with [^3H]-TdR to measure DNA synthesis activity essentially as described by Bowlin et al. [Cell Immunol. 98, 341-50 (1986)].
The CTLL-20 cells were then restimulated with IL-2 (10 units/mL) for 24 hours and were pulsed for the final 6 hours with [^3H]-TdR to measure DNA synthesis activity essentially as described for Example X.

[2] = system: Cloned IL-2 dependent cytolytic T lymphocytes (CTLL-20); test: Inhibition of interleukin-2 dependent T-cell growth in vitro: cell counts by trypan blue exclusion; assay type: cell-based; details: 10 Units/mL IL-2
Protocol: (§1) Inhibition of interleukin-2 (IL-2) dependent T-cell growth in vitro was determined essentially as described by Bowlin et al. [Cell Immunol. 98, 341-50 (1986)]. Cloned IL-2 dependent cytolytic T lymphocytes (CTLL-20), incubated alone or in the presence of (cis)-5'-deoxy-5'-[(4-amino-2-butenyl) methylamino]adenosine (Compound A) at varying concentrations, were stimulated with 10 Units/mL of IL-2 and were grown in culture. After 72 hours, cell counts were determined based on trypan blue exclusion.
as §1, with “in Example X.” for “by Bowlin et al. [Cell Immunol. 98, 341-50 (1986)].”, “100µM,” for “varying concentrations,”, “culture for 1, 2, 3 or 4 days. At the end of incubation,” for “culture. After 72 hours,”

For `CN(C/C=C\CN)C[C@H]1O[C@@H](n2cnc3c(N)ncnc32)[C@H](O)[C@@H]1O` (relative stereo) [Compound A, (cis)-5'-deoxy-5'-[(4-amino-2-butenyl)methylamino]adenosine], the “DNA Synthesis CPM” value ([1]; Compound A 1 µM, 72 hours culture, restimulated with IL-2 10 units/mL for 24 hours) was 19218 CPM, the “DNA Synthesis CPM” value ([1]; Compound A 10 µM, 72 hours culture, restimulated with IL-2 10 units/mL for 24 hours) was 10005 CPM and the “DNA Synthesis CPM” value ([1]; Compound A 100 µM, 72 hours culture, restimulated with IL-2 10 units/mL for 24 hours) was 8114 CPM. For the same compound, the inhibition at 100 µM ([1]; T-lymphocyte, 48 h, time course: incubation time 2 days, Compound A 100 µM, then IL-2 restimulation 24 hours, read-out: DNA Synthesis (% Reduction over Control)) was 45%, the inhibition at 100 µM ([1]; T-lymphocyte, 72 h, time course: incubation time 3 days, Compound A 100 µM, then IL-2 restimulation 24 hours, read-out: DNA Synthesis (% Reduction over Control)) was 76% and the inhibition at 100 µM ([1]; T-lymphocyte, 96 h, time course: incubation time 4 days, Compound A 100 µM, then IL-2 restimulation 24 hours, read-out: DNA Synthesis (% Reduction over Control)) was 73%. The inhibition at 1 µM ([1]; T-lymphocyte, Compound A 1 µM, 72 hours culture, restimulated with IL-2 10 units/mL for 24 hours, read-out: DNA Synthesis (% Reduction over Group 1)) was 43%, the inhibition at 10 µM ([1]; T-lymphocyte, Compound A 10 µM, 72 hours culture, restimulated with IL-2 10 units/mL for 24 hours, read-out: DNA Synthesis (% Reduction over Group 1)) was 70% and the inhibition at 100 µM ([1]; T-lymphocyte, Compound A 100 µM, 72 hours culture, restimulated with IL-2 10 units/mL for 24 hours, read-out: DNA Synthesis (% Reduction over Group 1)) was 76%. For the same compound, the inhibition at 100 µM ([1]; T-lymphocyte, time course: incubation time 1 day, Compound A 100 µM, then IL-2 restimulation 24 hours, read-out: DNA Synthesis (% Reduction over Control)) was 59%, the “DNA Synthesis CPM” value ([1]; time course: incubation time 1 day, Compound A 100 µM, then IL-2 restimulation 24 hours) was 7622 CPM and the “DNA Synthesis CPM” value ([1]; time course: incubation time 2 days, Compound A 100 µM, then IL-2 restimulation 24 hours) was 6197 CPM. For the same compound, the “DNA Synthesis CPM” value ([1]; time course: incubation time 3 days, Compound A 100 µM, then IL-2 restimulation 24 hours) was 8114 CPM, the “DNA Synthesis CPM” value ([1]; time course: incubation time 4 days, Compound A 100 µM, then IL-2 restimulation 24 hours) was 8863 CPM and the “Cell Count Number Recovered” value ([2]; Compound A 1 µM, after 72 hours) was 4.0x10^6. The “Cell Count Number Recovered” value ([2]; Compound A 10 µM, after 72 hours) was 2.0x10^6, the “Cell Count Number Recovered” value ([2]; Compound A 100 µM, after 72 hours) was 1.0x10^6 and the inhibition at 100 µM ([2]; T-lymphocyte, 24 h, time course: incubation time 1 day, Compound A 100 µM, read-out: Cell Count (% Reduction over Control) (converted)) was 40%. The inhibition at 100 µM ([2]; T-lymphocyte, 48 h, time course: incubation time 2 days, Compound A 100 µM, read-out: Cell Count (% Reduction over Control) (converted)) was 78%, the inhibition at 100 µM ([2]; T-lymphocyte, 72 h, time course: incubation time 3 days, Compound A 100 µM, read-out: Cell Count (% Reduction over Control) (converted)) was 85% and the inhibition at 100 µM ([2]; T-lymphocyte, 96 h, time course: incubation time 4 days, Compound A 100 µM, read-out: Cell Count (% Reduction over Control) (converted)) was 64%. It also gave an inhibition at 1 µM ([2]; T-lymphocyte, Compound A 1 µM, after 72 hours, read-out: Cell Count (% Reduction over Group 1) (converted)) of 39%, an inhibition at 10 µM ([2]; T-lymphocyte, Compound A 10 µM, after 72 hours, read-out: Cell Count (% Reduction over Group 1) (converted)) of 70% and an inhibition at 100 µM ([2]; T-lymphocyte, Compound A 100 µM, after 72 hours, read-out: Cell Count (% Reduction over Group 1) (converted)) of 85%. For the same compound, the “Cell Count Number Recovered” value ([2]; time course: incubation time 1 day, Compound A 100 µM) was 0.3x10^6, the “Cell Count Number Recovered” value ([2]; time course: incubation time 2 days, Compound A 100 µM) was 0.7x10^6 and the “Cell Count Number Recovered” value ([2]; time course: incubation time 3 days, Compound A 100 µM) was 1.0x10^6. The “Cell Count Number Recovered” value ([2]; time course: incubation time 4 days, Compound A 100 µM) was 1.7x10^6.
